ChEMBL document CHEMBL1122213, “Synthesis and study of a spin-labeled cyclophosphamide analogue, 3-(1-oxy-2,2,6,6-tetramethyl-4-piperidinyl)cyclophosphamide” (J Med Chem, 1982)
Calls of active or inactive are those of the source. The rule behind the calls is not given here.

What was measured:
[1] = Half life was determined; assay type: ADME; conditions: rat
[2] = Anticancer activity tested against L1210 lymphoid leukemia in BDF1 mice; range 25-100; assay type: ADME; conditions: mouse
Mus musculus [3] = species on record: Mus musculus; experiment: Effect tested against L1210 lymphoid leukemia in BDF1 mice an inoculum of l0E5 cells; Inactive; assay type: functional, organism-based
[4] = Anticancer activity tested against L1210 lymphoid leukemia in BDF1 mice; range 75-300; assay type: ADME; conditions: mouse
Mus musculus [5] = experiment: Compound test for increase life span in mice after 100 mg/kg ip administration; assay type: functional; conditions: route intraperitoneal

Row | Structure (SMILES) | half-life [1] [min] | Activity (Mus musculus [3]) | other results
1 | CC1(C)CC(NP(=O)(O)N(CCCl)CCCl)CC(C)(C)N1[O] | 51 |  | 
2 | CC1(C)CC(NP(=O)(O)N(CCCl)CCCl)CC(C)(C)N1O.CC1(C)CC(NP(=O)(O)N(CCCl)CCCl)CC(C)(C)N1[O] [listing 1 of 2 here] |  |  | Sublethal dose [2]: > 100 mg/kg
3 | CC1(C)CC(NP(=O)(O)N(CCCl)CCCl)CC(C)(C)N1O.CC1(C)CC(NP(=O)(O)N(CCCl)CCCl)CC(C)(C)N1[O] [listing 2 of 2 here] |  | inactive | 
4 | CC1(C)CC(N2CCCOP2(=O)N(CCCl)CCCl)CC(C)(C)N1[O] (configuration not stated) |  | inactive | Sublethal dose [4]: > 300 mg/kg; Increased (Mus musculus [5]): 64%
5 | CC1(C)CC(NP(=O)(O)N(CCCl)CCCl)CC(C)(C)N1O | 34 |  | 
